Measured values as given in patent EP0004358A1, “N-oxacyclylalkyl piperidines, process for their preparation, pharmaceutical compositions containing these compounds” (priority 1978, dated 1979).
Structures can show the parent of a compound that is named as a salt.

Tests used:
anticholinergische = test: Anticholinergic action (statement, no method)
[1] = tested on: präsynaptischerc(-noradrenergischer Blocker); test: Presynaptic alpha-noradrenergic blockade (statement, no method); conditions: compared in kind with Mianserin
männlichen Albinoratten = test: Conditioned shock avoidance (lever pressing) in rats; type: in vivo, Ratte; conditions: for Schockvermeidungsreaktion der Ratte: doses down to 2,5 mg/kg/Tag
Excerpt: Die Verbindungen der Erfindung zeigen wertvolle pharmakologische, z.B. stimulierende und antidepressive Wirkungen. Diese können in Tierversuchen, vorzugsweise an Säugetieren, wie Ratten oder Affen, als Testobjekte nachgewiesen werden. Die Verbindungen der Erfindung können ihnen enteral, z.B. oral, oder parenteral, z.B. subkutan, intraperitoneal oder intravenös, z.B. in Form von wässerigen Lösungen oder Stärke enthaltenden Suspensionen, verabreicht werden. Die verwendete Dosis kann in einem Bereich von ungefähr zwischen 0,1 und 100 mg/kg/Tag, vorzugsweise ungefähr 1 und 50 mg/kg/Tag, insbesondere ungefähr 5 und 25 mg/kg/Tag liegen. Die genannten stimulierenden und antidepressiven Wirkungen können z.B. an männlichen Albinoratten beobachtet werden. Die Tiere haben freien Zugang zu Futter und Wasser, mit Ausnahme der Versuchsdauer. Die Untersuchung des Tierverhaltens wird in normierten, schallisolierten Konditionierungskammern, welche einen Schalthebel enthalten, durchgeführt. Gemäss dem Test werden die Ratten durch das Bodengitter der Kammer elektrischen Schocks ausgesetzt. Der Hebel ist an eine programmierte Einrichtung, welche die Abgabe von elektrischen Schocks reguliert, angeschlossen. Die Anzahl der Betätigung des Hebels und die Anzahl der erlittenen Schocks werden registriert. Die Ratten werden vorher dazu trainiert, diesem elektrischen Impuls durch Drücken der Taste auszuweichen. Dann wird der Apparat so eingestellt, dass jede Hebelbetätigung den Schockeintritt um 30 Sekunden verschiebt. Vergisst das Tier den Hebel innerhalb dieses Zeitintervalls zu drücken, so werden alle 15 Sekunden kurze elektrische Schocks abgegeben, bis das Tier den Hebel wieder betätigt. Vor jeder Testperiode werden die Ratten, um sich zu erwärmen, 15 Minuten in den Testkammern gehalten. Während dieser Zeit wird die Anzahl der Hebelbetätigungen nicht registriert. Unmittelbar nach dieser Periode werden die Test-Verbindungen entweder in Kochsalzlösung oder in 3Xiger Maisstärke-Suspension in 5%igem wässerigem Polyäthylenglykol-400, welches auf 10 ml einen Tropfen Polyäthylen-20- sorbitanmonooleat enthält, entweder oral oder intraperitoneal vorabreicht. […] Diese erfindungsgemässe Verbindung zeigt einen einzigartigen Wirkungsmechanismus.

biogener Amine = test: Uptake inhibition of biogenic amines (statement, no method)
antihistaminische = test: Antihistaminic action (statement, no method)
[2] = tested on: Totenkopf-Aeffchen (squirrel monkeys); test: Conditioned shock avoidance (Skinner cage) in squirrel monkeys; type: in vivo; conditions: oral in 0,9%iger wässeriger Kochsalzlösung, doses down to 2,5 mg/kg/Tag; four-hour session
Excerpt: In einem anderen Test werden Totenkopf-Aeffchen (squirrel monkeys) durch Training dazugebracht, den Hebel in einem solchen Skinner-Käfig zu drücken, um dem elektrischen Schock, der auf die Füsse durch das Bodengitter verabreicht wird, auszuweichen. Jeder Tastendruck verschiebt den elektrischen Schock um 20 Sekunden. Versäumt der Affe innerhalb von 20 Sekunden die Taste zu drücken, so wird er kurze (0,5 Sekunden) elektrische Schocks alle 20 Sekunden bis zu seinem nächsten Tastendruck erleiden. Unter Kontrollbedingungen drücken die Affen den Hebel mit einer verhältnismässig stetigen Geschwindigkeit, so dass sie selten mehr als 6 Schocks während einer vierstündigen Versuchsperiode erhalten. Man bestimmt die Anzahl der Vermeidungsreaktionen sowie die Anzahl der erhaltenen Schocks. […] Der Wirkstoff wird in niedrigen Dosen bis hinunter zu 2,5 mg/kg/Tag verabreicht. Die Untersuchung zwecks Gewinnung von Kontrollwerten wird unter Verwendung von Kochsalzlösung allein, ein Tag vor der Untersuchung der Wirkstoffe, durchgeführt.

Compound	anticholinergische Wirkung (anticholinergische)	präsynaptischerc(-noradrenergischer Blocker) [1]	Zunahme der Schockvermeidungsreaktion, comparison with Methylphenidat (männlichen Albinoratten; compared with 5 mg/kg/Tag Methylphenidat intraperitoneal)	Schockvermeidungsreaktion der Ratte (männlichen Albinoratten; intraperitoneal)	Aufnahmehemmer biogener Amine (biogener Amine)	antihistaminische Wirkung (antihistaminische)	Anzahl der erlittenen Schocks [2]	Ausmass der Vermeidungsreaktionen [2]	Zunahme der Schockvermeidungsreaktion (männlichen Albinoratten; 5 mg/kg/Tag, intraperitoneal)
O=C1NCCN1C1CCN(CCC2COc3ccccc3O2)CC1 (racemic) [1-[1-[2-(1,4-Benzodioxan-2-yl)-äthyl]-4-piperidyl]-2-imidazolidinon]	weder eine anticholinergische	kein präsynaptischerc(-noradrenergischer Blocker	vorteilhaft	erhöht signifikant	kein Aufnahmehemmer biogener Amine	noch eine antihistaminische Wirkung	–	–	–
O=C1NCCN1C1CCN(CC[C@H]2COc3ccccc3O2)CC1 [1-(S)-Hydrobromid]	–	–	–	erhöht signifikant	–	–	positive Aenderungen	positive Aenderungen	–
COC(=O)C(c1ccccc1)C1CCCCN1 (stereo not shown) [Methylphenidat, reference compound]	–	–	–	–	–	–	–	–	Zunahme der Schockvermeidungsreaktion
